Assay type in all cases: in vitro ADME
Data set [1] concerns CYP3A. Put plainly: IC50 of vortioxetine on CYP3A (midazolam) in RLMs. The conditions noted are these: rat, rat liver microsomes, probe midazolam. The protocol: (§1) The components of the incubation system were as follows: 0.20 mg/mL HLMs or 0.20 mg/mL RLMs, 0.1 M Tris-HCl, vortioxetine, and the probe substrates of each enzyme. In the study of Km’s (Michaelis–Menten constant) experiment, midazolam (1, 2, 5, 10, 20, 50 and 100 μM in HLMs and RLMs) corresponded to CYP3A4/3A; bupropion (10, 20, 50, 100, 200, 500, 1,000 and 2000 μM in HLMs; 1, 2, 5, 10, 20, 50, 100 and 200 μM in RLMs) corresponded to CYP2B6/2B; amodiaquine (5, 10, 20, 50, 100 and 200 μM in HLMs; 10, 20, 50, 100, 200, 500 μM in RLMs) corresponded to CYP2C8/CYP2C-1; losartan (1, 2, 5, 10, 20, 50, 100, 200 μM in HLMs; 10, 20, 50, 100, 200, 500 and 1,000 μM in RLMs) corresponded to CYP2C9/CYP2C-2; mephenytoin (20, 50, 100, 200, 500 and 1,000 μM in HLMs; 5, 10, 20, 50, 100, 200, 500 and 1,000 μM in RLMs) corresponded to CYP2C19/CYP2C-3; and dextromethorphan (1, 2, 5, 10, 20, 50 and 100 μM in HLMs and RLMs) corresponded to CYP2D6/CYP2D. […]
(§2) All experiments results were detected by UPLC-MS/MS, which equipped with a Waters Acquity UPLC system (Milford, MA, United States) and a Waters Xevo TQ-S triple quadrupole tandem mass spectrometer with an electrospray ionization source (Milford, MA, United States). […]
(§3) IC50 values and enzyme kinetic parameters were calculated by Graphpad Prism 6.0 (GraphPad software Inc., CA, United States). […] Data for each experiment were expressed as mean ± SD (n = 3).
(In general: Microsomes from liver hold many membrane-bound enzymes, among them those of drug oxidation.)

Data set [2] addresses CYP2D6 (Homo sapiens, UniProt P10635). Put plainly: IC50-shift experiment, CYP2D6 in HLMs. On the set-up: 0.20 mg/mL HLMs or 0.20 mg/mL RLMs; from tissue; host or cells: human liver microsomes. The note with it: for pIC50: dextromethorphan 10 μM. The protocol:
as §1, with “CYP2D6/CYP2D. After 5.0 min of preincubation in the shaking water bath, the reaction was started with the addition of 1.0 mM NADPH. The incubated temperature at 37°C for 30 min. After the incubation, the enzyme reaction was stopped by cooling at −80°C, and 200 μL of acetonitrile and 20 μL of internal standard diazepam (200 ng/mL) were added for protein precipitation.” for “CYP2D6/CYP2D.”
IC50-shift was used to investigate whether the drug produced time-dependent inhibition (TDI) of the enzyme. […] During the experiment, the individual substrates midazolam (4 μM), bupropion (40 μM), amodiaquine (3 μM), losartan (8 μM), mephenytoin (90 μM), and dextromethorphan (10 μM) were determined with vortioxetine IC50-shift in HLMs. […]
as §2, §3

Data set [3] deals with CYP3A. Put plainly: IC50-shift experiment, CYP3A in RLMs. The conditions noted are these: rat, rat liver microsomes, probe midazolam; for IC50 at 30 min: midazolam 3.5 μM.
Data set [4] addresses T1, CYP2B6 (Homo sapiens, UniProt P20813).
T1 sequence (P20813 1-491): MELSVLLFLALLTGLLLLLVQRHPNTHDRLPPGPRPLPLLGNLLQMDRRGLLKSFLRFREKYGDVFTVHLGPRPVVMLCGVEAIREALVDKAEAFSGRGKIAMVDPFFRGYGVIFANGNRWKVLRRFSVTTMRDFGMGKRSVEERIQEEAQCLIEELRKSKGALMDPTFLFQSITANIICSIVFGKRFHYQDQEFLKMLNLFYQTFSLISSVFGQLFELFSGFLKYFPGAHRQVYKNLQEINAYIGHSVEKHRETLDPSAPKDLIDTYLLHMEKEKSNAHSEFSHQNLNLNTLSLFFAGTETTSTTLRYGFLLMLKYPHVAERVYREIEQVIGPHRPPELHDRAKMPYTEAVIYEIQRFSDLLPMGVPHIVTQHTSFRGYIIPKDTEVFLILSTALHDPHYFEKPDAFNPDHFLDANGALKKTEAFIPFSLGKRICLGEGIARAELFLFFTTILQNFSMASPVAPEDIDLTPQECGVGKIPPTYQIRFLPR
In words: IC50 of vortioxetine on CYP2B6 (bupropion) in HLMs. Also on record: 0.20 mg/mL HLMs; from tissue; host or cells: human liver microsomes. The protocol:
as §1, §2, §3

Setting [5] is: 30 min preincubation with 1.0 mM NADPH.
The mark [6] stands for this setting: 30 min preincubation without NADPH.

A word on the IC50: it is the point on the concentration scale where inhibition reaches its midpoint. As usually defined, the pIC50 is the negative decadic logarithm of the IC50, by convention in mol/L.

SMILES strings stand for the structures. pIC50: −log10 of the molar value. Where two headings read alike, the source gives them in different places.

Chain of CYP2D6 (P10635 whole entry): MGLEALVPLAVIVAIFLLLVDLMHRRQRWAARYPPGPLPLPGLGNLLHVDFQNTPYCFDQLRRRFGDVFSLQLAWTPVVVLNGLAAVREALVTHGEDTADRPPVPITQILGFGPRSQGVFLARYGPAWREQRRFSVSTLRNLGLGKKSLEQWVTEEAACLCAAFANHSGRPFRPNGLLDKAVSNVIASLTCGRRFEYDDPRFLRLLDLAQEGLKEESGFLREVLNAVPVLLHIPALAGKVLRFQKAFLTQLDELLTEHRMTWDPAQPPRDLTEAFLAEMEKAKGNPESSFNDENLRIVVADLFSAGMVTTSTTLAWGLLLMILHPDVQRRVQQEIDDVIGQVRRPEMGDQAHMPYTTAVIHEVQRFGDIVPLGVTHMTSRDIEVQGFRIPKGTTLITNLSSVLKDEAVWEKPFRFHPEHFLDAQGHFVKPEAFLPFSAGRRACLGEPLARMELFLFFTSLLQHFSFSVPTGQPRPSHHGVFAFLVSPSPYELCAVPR

Take `Cc1ccc(Sc2ccccc2N2CCNCC2)c(C)c1` [vortioxetine]: the IC50 at 30 min in data set [1] (RLMs 0.20 mg/mL, midazolam at Km, 37°C, 30 min, read-out: IC50) is 16.4 µM; in data set [1] (inhibitory effect (strength judged by IC50), RLMs) it was greater than 10 µM; in data set [3] (setting [5]), 16.4 µM; in data set [3] (setting [6]) it was 20.9 µM. In addition, the pIC50 was 4.74 in data set [2] (setting [5]); 4.71 in data set [2] (setting [6]); 5.05 in data set [4] (HLMs 0.20 mg/mL, bupropion at Km, 37°C, 30 min, read-out: IC50); 5.00 to 6.00 in data set [4] (inhibitory effect (strength judged by IC50), HLMs). Further, the IC50 shift at 30 min in data set [2] (human, human liver microsomes, probe dextromethorphan (10 μM), ratio IC50 (−) NADPH to IC50 (+) NADPH, read-out: IC50 fold shift) came out at 1.06; in data set [3] (ratio IC50 (−) NADPH to IC50 (+) NADPH, read-out: IC50 fold shift) it was 1.28.

Values taken from publication PMC10544575, “Inhibitory mechanism of vortioxetine on CYP450 enzymes in human and rat liver microsomes” (Frontiers in Pharmacology, 2023).
